According to PMC5458179, “Oxidative DNA double strand breaks and autophagy in the antitumor effect of sterically hindered platinum(II) complexes in NSCLCs” (Oncotarget, 2017):

Legend:
SGC-7901 = experiment: MTT cytotoxicity assay; format: cell-based, human; conditions: 48 h drug exposure
Experimental: (§1) The results reveal that the steric hindrance plays a significant role in the cytotoxicity of complex 3.
(§2) Human cancer cell lines HepG2, SGC-7901, HCT-116, A549, NCI-H1299 and MCF-7 as well as normal liver cell line L02 were purchased from the Cell Bank of Shanghai Institute of Cell Biology. Among them, MCF-7, HepG2 cells were cultured at 37 °C in 5% CO2 with DMEM supplemented with 10% fetal bovine serum (FBS) (Hyclone, Lifescience, USA) and 1% penicillin/streptomycin (Beyotime, Nantong, China), while HCT-116, SGC-7901, A549, NCI-H1299 and L02 cells were cultured at 37 °C in 5% CO2 with RPMI-1640 supplemented with 10% FBS and 1% penicillin/streptomycin. Cells were passed every 2 days and restarted from frozen stocks upon reaching pass number 20.
(§3) In vitro cytotoxicity of the platinum compounds against human hepatocellular carcinoma (HepG-2), gastric carcinoma (SGC-7901), non-small-cell lung cancer (A549), and colorectal cancer (HCT-116) cell lines were measured by the MTT assays. Briefly, the cells were seeded in 96-well cultured plates at a density of 5000 cells/well. After overnight incubation (16 h), the cells were treated with the platinum complexes. After 48 h of incubation, 10 μL of a freshly diluted 3-(4,5-dimethyl-2-thiazolyl)-2,5-diphenyl-2H-tetrazolium bromide (MTT) solution (5 mg/mL) were added to each well and the plates were incubated at 37 °C in a humidified 5% CO2 atmosphere for 4 h. At the end of the incubation period the medium was removed and the formazan product was dissolved in 150 μL of DMSO. The cell viability was evaluated by measurement of the absorbance at 490 nm, using an Absorbance Reader (BioRad). IC50 values (compound concentration that produces 50% of cell growth inhibition) were calculated from curves constructed by plotting cell survival inhibitory rate (%) versus drug concentration logarithm. All experiments were repeated in three times. The reading values were converted to the percentage of control (% cell survival). Cytotoxic effects were expressed as IC50 values.

HCT-116 = experiment: MTT cytotoxicity assay; format: cell-based, human; conditions: 48 h drug exposure
Experimental: as §1, §2, §3

HepG2 = experiment: MTT cytotoxicity assay; format: cell-based, human; conditions: 48 h drug exposure
Experimental: as §1, §2, §3

A549 cells [1] = experiment: Annexin V-FITC/PI apoptosis assay (flow cytometry); format: cell-based, human; conditions: A549, 50 μM for 24 h (figure legend and method: 10 μM)
Experimental: (§4) Apoptosis is a crucial programmed death form of aging or damaged cells. […] To further explore the impact of complex 3 on long-term clonogenic survival, colony formation assay was performed.
(§5) Annexin V-FITC apoptosis detection kit (Keygen, Jiangsu, China) assay was performed according to the manufacturer's protocol. […] Then the cells were collected, resuspended in binding buffer (pH 7.5, 10 mM HEPES, 2.5 mM CaCl2 and 140 mM NaCl), incubated with Annexin V-FITC and then PI for 10 min in the dark at room temperature, the processed cells were analyzed by flow cytometry (FACSCalibur, Becton Dickinson) and a computer station running Cell-Quest software. (BD Biosciences, Franklin Lakes, NJ).

NCI-H1299 cells [2] = experiment: Annexin V-FITC/PI apoptosis assay (flow cytometry); format: cell-based, human; conditions: NCI-H1299, 50 μM for 24 h (figure legend and method: 10 μM)
Experimental: as §4, §5

pET28a plasmid DNA = experiment: Agarose gel electrophoresis of plasmid DNA; conditions: 0, 20, 80, 320, 640 μM
Experimental: The tested complexes were incubated with DNA at different concentrations.
Appropriate dilutions of tested complexes were made, and the required volumes of solutions were added to achieve a set of concentrations in the range of 0–100 mm; pET22b DNA (5 mL, 0.20 mg) was added to each tube, and the mixtures of platinum complexes and pET22b plasmid DNA were then incubated at 37°C for 6 or 24 h. Afterward, the agarose gel (made up to 1% w/v) containing ethidium bromide was prepared with TA buffer (50 mm Tris-acetate, pH 7.5). The mixtures with loading buffer (1 mL) underwent electrophores is in agarose gel in TA buffer at 100 V for 60 min. Bands were imaged using a Molecular Imager (Bio-Rad, USA) under UV light.

A549 xenograft tumors = conditions: for tumor growth inhibition rate: 5 mg/kg i.v., complex 3 once every three days, oxaliplatin twice a week, tumor weight at end
Experimental: To evaluate the anti-tumor effect of complex 3 in vivo, an xenografts nude mice model of A549 cancer cells was performed. […] At the end of treatments, the tumor weight was measured to detect the antitumor activity of these measured groups. […] Because platinum-based drugs are well known for their toxic effects on the mean bodyweights of treated animals, the toxicity of complex 3 in the body weights of mice was assayed. […] The mice treated with the tested complex 3 were selected for histological analyses.
Thirty-five nude mice (BALB/c) with body weight range from 18–22 g, were supplied by Shanghai Laboratory Animal Center, China Academy of Sciences. Experimental protocols were in accordance with National Institutes of Health regulations and approved by the Institutional Animal Care and Use Committee. All animals were randomly divided into 5 groups. The A549 single-cell suspension in PBS (1×10^7 cells per mouse) was injected subcutaneously into the right oxter of nude mice. […] The control group was administered glucose. The tumor growth was monitored by measuring the perpendicular diameter of the tumor using calipers every two days and calculated according to the formula:
Tumor volume (mm^3) = 0.5 × length × width^2
Growth curves were plotted using the average tumor volume within each experimental group at the set time points. The whole group of mice was sacrificed after the last treatment, then tumor weight was evaluated as the antitumor activity of the corresponding groups, and the kidneys, livers and tumors were excised for immunohistochemistry analysis. The body weight and physical state of the mice were measured simultaneously as an indicator of systemic toxicity.

[3] = system: L02 normal liver cell line; experiment: MTT cytotoxicity assay; format: cell-based; conditions: 48 h drug exposure
Experimental: as §1, §2, §3

A549 cells [4] = experiment: Cell-cycle analysis (PI staining, flow cytometry); format: cell-based, human; conditions: A549, 10 μM
Experimental: (§6) With the untreated A549 and NCI-H1299 cells, the percentage of cells in the G1 phase was at 21.29%, 18.96% with 15.28%, 22.94% in the G2/M phase, respectively.
(§7) Cell cycle was analyzed by flow cytometry as described previously. Data were analyzed with FlowJo software (TreeStar, Inc.).

NCI-H1299 cells [5] = experiment: Cell-cycle analysis (PI staining, flow cytometry); format: cell-based, human; conditions: NCI-H1299, 10 μM
Experimental: as §6, §7

Herring sperm DNA = experiment: DNA platination by EtBr fluorescence; conditions: 0.01 mg/mL DNA, pH 7.4, 37°C, 24 h
Experimental: The better cytotoxicity of complex 3 owing to the DNA platination could be detected in the presence of EtBr as a probe via fluorescent measurements, because their DNA platination could prevent the formation of EtBr-DNA complex, resulting in its stoichiometric loss of fluorescence.
Herring sperm DNA was dissolved in 10 mM phosphate buffer (pH 7.4) containing 10 mM NaClO4. The DNA concentration was determined by UV-vis spectra at 260 nm with an extinction coefficient of 6600 M^−1. The mixture of DNA with platinum complexes were incubated at 37°C in the dark. The fluorescence was measured in 0.4 M NaCl to avoid the second fixation site of EtBr to DNA. EtBr (0.04 mg/mL) was added to the 0.01 mg/mL DNA solution before the fluorescence measurement. Fluorescence spectra were recorded under following conditions: scan speed 2000 nm min^−1; excitation slit width was 5 nm and emission slit width was 10 nm. The excitation and emission wavelength was 530 nm and 592 nm, respectively.

Structure (SMILES) | IC50 (SGC-7901) [µM] | IC50 (HCT-116) [µM] | IC50 (HepG2) [µM] | early and median apoptotic cells (A549 cells [1]) [%] | early and median apoptotic cells (NCI-H1299 cells [2]) [%] | late apoptotic cells (NCI-H1299 cells [2]) [%] | gel electrophoretic mobility of plasmid DNA (pET28a plasmid DNA) | tumor volumes (A549 xenograft tumors; 5 mg/kg i.v. once every three days) | tumor growth inhibition rate (A549 xenograft tumors) [%] | expressions of LC3 in tumor tissues (A549 xenograft tumors; immunoblotting) | bodyweights of mice during treatment (A549 xenograft tumors; mouse, in vivo) | IC50 [3] [µM] | cell cycle phase blocked (A549 cells [4]) | cell cycle phase blocked (NCI-H1299 cells [5]) | percentage of cells in the G1 phase (NCI-H1299 cells [5]; 72 h, untreated 18.96%) [%] | DNA platination, change of EtBr fluorescent intensity (Herring sperm DNA)
CC(C)C[NH+]1[C@@H]2CCCC[C@H]2[NH+](CC(C)C)[Pt-2]12[O]C(=O)CC(=O)[O]2 (stereo partly shown) [Complex 3] | 38.6 ± 2.49 | 38.6 ± 2.67 | 52.9 ± 4.37 | 0.94 | 9.77 | 27.51 | a strong unwinding of the supercoiled DNA | significantly decreased | 67.96 | increased expressions of LC3 in tumor tissues | increase of bodyweights | 82.6 ± 3.95 | G2/M phases of A549 and NCI-H1299 were blocked strikingly | G2/M phases of A549 and NCI-H1299 were blocked strikingly | 60.29 | more fluorescent intensity change compared to complex 3a
O=C1[O][Pt]2([NH][C@@H]3CCCC[C@H]3[NH]2)[O]C1=O [Oxaliplatin, oxaliplatin, reference compound] | 24.2 ± 0.35 | 19.1 ± 1.89 | 16.6 ± 0.56 | 29.50 | 10.27 | 15.98 | a decrease in the rate of migration for closed circular DNA (Form I) | – | 34.48 | – | – | 42.9 ± 3.54 | S phases were blocked | S phases were blocked | – | a little loss of fluorescent intensity
